PubChem BioAssay (NCI)
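These data come from cells grown in 96-well plates and exposed to compound for 48 hours at five concentrations. TGI is the concentration that stops growth completely.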

Key:
Test in all cases: growth of human tumour cells (NCI), 48 h
786-0 renal = system: 786-0 renal
A498 renal = system: A498 renal
A549 NSCLC = system: A549 NSCLC
ACHN renal = system: ACHN renal
CAKI-1 renal = system: CAKI-1 renal
CCRF-CEM leukemia = system: CCRF-CEM leukemia
COLO 205 colon = system: COLO 205 colon
DU-145 prostate = system: DU-145 prostate
EKVX NSCLC = system: EKVX NSCLC
HCC-2998 colon = system: HCC-2998 colon
HCT-116 colon = system: HCT-116 colon
HCT-15 colon = system: HCT-15 colon
HL-60(TB) leukemia = system: HL-60(TB) leukemia
HOP-62 NSCLC = system: HOP-62 NSCLC
HOP-92 NSCLC = system: HOP-92 NSCLC
HS 578T breast = system: HS 578T breast
HT29 colon = system: HT29 colon
IGROV1 ovarian = system: IGROV1 ovarian
K-562 leukemia = system: K-562 leukemia
KM12 colon = system: KM12 colon
LOX IMVI melanoma = system: LOX IMVI melanoma
M14 melanoma = system: M14 melanoma
MALME-3M melanoma = system: MALME-3M melanoma
MCF7 breast = system: MCF7 breast
MDA-MB-231 breast = system: MDA-MB-231 breast
MDA-MB-435 = system: MDA-MB-435
MDA-N = system: MDA-N
MOLT-4 leukemia = system: MOLT-4 leukemia
NCI-H226 lung = system: NCI-H226 lung
NCI-H23 lung = system: NCI-H23 lung
NCI-H460 lung = system: NCI-H460 lung
NCI-H522 lung = system: NCI-H522 lung
NCI/ADR-RES ovarian = system: NCI/ADR-RES ovarian
OVCAR-3 ovarian = system: OVCAR-3 ovarian
OVCAR-4 ovarian = system: OVCAR-4 ovarian
OVCAR-5 ovarian = system: OVCAR-5 ovarian
OVCAR-8 ovarian = system: OVCAR-8 ovarian
PC-3 prostate = system: PC-3 prostate
RPMI-8226 leukemia = system: RPMI-8226 leukemia
RXF 393 renal = system: RXF 393 renal
SF-268 CNS = system: SF-268 CNS
SF-295 CNS = system: SF-295 CNS
SF-539 CNS = system: SF-539 CNS
SK-MEL-2 melanoma = system: SK-MEL-2 melanoma
SK-MEL-28 melanoma = system: SK-MEL-28 melanoma
SK-MEL-5 melanoma = system: SK-MEL-5 melanoma
SK-OV-3 ovarian = system: SK-OV-3 ovarian
SN12C renal = system: SN12C renal
SNB-19 CNS = system: SNB-19 CNS
SNB-75 CNS = system: SNB-75 CNS
SR leukemia = system: SR leukemia
SW-620 colon = system: SW-620 colon
TK-10 renal = system: TK-10 renal
U251 CNS = system: U251 CNS
UACC-257 melanoma = system: UACC-257 melanoma
UACC-62 melanoma = system: UACC-62 melanoma
UO-31 renal = system: UO-31 renal
T-47D breast = system: T-47D breast

Compound: CCCCCCCCCCCCCCCCC1=CC(=O)C=C(OC)C1=O
- TGI (786-0 renal): > 100 µM
- TGI (A498 renal): > 100 µM
- TGI (A549 NSCLC): > 100 µM
- TGI (ACHN renal): > 100 µM
- TGI (CAKI-1 renal): > 100 µM
- TGI (CCRF-CEM leukemia): > 100 µM
- TGI (COLO 205 colon): > 100 µM
- TGI (DU-145 prostate): > 100 µM
- TGI (EKVX NSCLC): > 100 µM
- TGI (HCC-2998 colon): > 100 µM
- TGI (HCT-116 colon): > 100 µM
- TGI (HCT-15 colon): > 100 µM
- TGI (HL-60(TB) leukemia): > 100 µM
- TGI (HOP-62 NSCLC): > 100 µM
- TGI (HOP-92 NSCLC): > 100 µM
- TGI (HS 578T breast): > 100 µM
- TGI (HT29 colon): > 100 µM
- TGI (IGROV1 ovarian): > 100 µM
- TGI (K-562 leukemia): > 100 µM
- TGI (KM12 colon): > 100 µM
- TGI (LOX IMVI melanoma): > 100 µM
- TGI (M14 melanoma): > 100 µM
- TGI (MALME-3M melanoma): > 100 µM
- TGI (MCF7 breast): > 100 µM
- TGI (MDA-MB-231 breast): > 100 µM
- TGI (MDA-MB-435): > 100 µM
- TGI (MDA-N): > 100 µM
- TGI (MOLT-4 leukemia): > 100 µM
- TGI (NCI-H226 lung): > 100 µM
- TGI (NCI-H23 lung): > 100 µM
- TGI (NCI-H460 lung): > 100 µM
- TGI (NCI-H522 lung): > 100 µM
- TGI (NCI/ADR-RES ovarian): > 100 µM
- TGI (OVCAR-3 ovarian): > 100 µM
- TGI (OVCAR-4 ovarian): > 100 µM
- TGI (OVCAR-5 ovarian): > 100 µM
- TGI (OVCAR-8 ovarian): > 100 µM
- TGI (PC-3 prostate): > 100 µM
- TGI (RPMI-8226 leukemia): > 100 µM
- TGI (RXF 393 renal): > 100 µM
- TGI (SF-268 CNS): > 100 µM
- TGI (SF-295 CNS): > 100 µM
- TGI (SF-539 CNS): > 100 µM
- TGI (SK-MEL-2 melanoma): > 100 µM
- TGI (SK-MEL-28 melanoma): > 100 µM
- TGI (SK-MEL-5 melanoma): > 100 µM
- TGI (SK-OV-3 ovarian): > 100 µM
- TGI (SN12C renal): > 100 µM
- TGI (SNB-19 CNS): > 100 µM
- TGI (SNB-75 CNS): > 100 µM
- TGI (SR leukemia): 92.7 µM
- TGI (SW-620 colon): > 100 µM
- TGI (TK-10 renal): > 100 µM
- TGI (U251 CNS): 93.8 µM
- TGI (UACC-257 melanoma): > 100 µM
- TGI (UACC-62 melanoma): > 100 µM
- TGI (UO-31 renal): > 100 µM

Compound: CC(C)[Si](OC12CCC(CC1O)CC2C(=O)O)(C(C)C)C(C)C (configuration not stated)
- TGI (786-0 renal): 26.8 µM
- TGI (A498 renal): 31 µM
- TGI (A549 NSCLC): 28.3 µM
- TGI (ACHN renal): 29.1 µM
- TGI (CAKI-1 renal): 36.4 µM
- TGI (CCRF-CEM leukemia): 70 µM
- TGI (COLO 205 colon): 59.2 µM
- TGI (DU-145 prostate): 33.7 µM
- TGI (HCT-116 colon): 23.8 µM
- TGI (HCT-15 colon): 24.8 µM
- TGI (HL-60(TB) leukemia): 6.87 µM
- TGI (HOP-62 NSCLC): 27.5 µM
- TGI (HOP-92 NSCLC): 27.4 µM
- TGI (HT29 colon): 26.8 µM
- TGI (K-562 leukemia): > 100 µM
- TGI (KM12 colon): 26.2 µM
- TGI (M14 melanoma): 29.3 µM
- TGI (MCF7 breast): 31.7 µM
- TGI (MDA-MB-231 breast): 38 µM
- TGI (MDA-MB-435): 31.8 µM
- TGI (MDA-N): 39.7 µM
- TGI (MOLT-4 leukemia): > 100 µM
- TGI (NCI-H226 lung): 31.6 µM
- TGI (NCI-H23 lung): 34.7 µM
- TGI (NCI-H460 lung): 20.2 µM
- TGI (NCI/ADR-RES ovarian): 33.6 µM
- TGI (OVCAR-3 ovarian): 28 µM
- TGI (OVCAR-4 ovarian): 25.1 µM
- TGI (OVCAR-5 ovarian): 30 µM
- TGI (OVCAR-8 ovarian): 42.4 µM
- TGI (PC-3 prostate): 25 µM
- TGI (RPMI-8226 leukemia): 58.3 µM
- TGI (SF-268 CNS): 27.9 µM
- TGI (SF-295 CNS): 29.2 µM
- TGI (SF-539 CNS): > 100 µM
- TGI (SK-MEL-2 melanoma): 27.7 µM
- TGI (SK-MEL-28 melanoma): 24.2 µM
- TGI (SK-MEL-5 melanoma): 51.6 µM
- TGI (SK-OV-3 ovarian): 27.2 µM
- TGI (SN12C renal): > 100 µM
- TGI (SNB-19 CNS): 29.1 µM
- TGI (SNB-75 CNS): 28.1 µM
- TGI (SR leukemia): > 100 µM
- TGI (SW-620 colon): 41.9 µM
- TGI (T-47D breast): 37.5 µM
- TGI (TK-10 renal): 17.1 µM
- TGI (U251 CNS): 31.4 µM
- TGI (UACC-257 melanoma): 36.5 µM
- TGI (UACC-62 melanoma): 27.6 µM
- TGI (UO-31 renal): 26 µM
